Measurements published in ChEMBL document CHEMBL3045968, “Antitumor activities of some new 1,3,2-oxaza- and 1,3,2-diazaphosphorinanes against K562, MDA-MB-231, and HepG2 cells” (Med Chem Res, 2012).

What was measured:
HepG2 = test: cells; conditions: Homo sapiens, HepG2, 48 h
Description: Cytotoxicity against Homo sapiens (human) HepG2 cells after 48 hr by MTT assay

K562 = test: cells; conditions: Homo sapiens, K562, 48 h
Description: Cytotoxicity against Homo sapiens (human) K562 cells after 48 hr by MTT assay

[1] = octanol/water
Description: Lipophilicity, log P of the compound

MDA-MB-231 = test: cells; conditions: Homo sapiens, MDA-MB-231, 48 h
Description: Cytotoxicity against Homo sapiens (human) MDA-MB-231 cells after 48 hr by MTT assay

physchem = conditions: octanol/water
Description: Lipophilicity, log P of the compound

| SMILES | IC50 (HepG2) | IC50 (K562) | logP [1] | IC50 (MDA-MB-231) | logP (physchem) |
| --- | --- | --- | --- | --- | --- |
| Cc1ccc(OP2(=O)NCC(C)(C)CN2)cc1 | 2200 nM | 1440 nM | 0.12 | 230 nM | – |
| O=P1(Nc2ccccc2)NCCCO1 (stereo not drawn) | 600 nM | 550 nM | – | 830 nM | 0.29 |
| NS(=O)(=O)c1ccc(NP2(=O)NCCCO2)cc1 (stereo not drawn) | 140 nM | 150 nM | – | 170 nM | 1.88 |
| COc1ccc(NP2(=O)NCCCO2)cc1 (stereo not drawn) | 60 nM | 200 nM | – | 230 nM | -0.71 |
| O=[N+]([O-])c1ccc(NP2(=O)NCCCO2)cc1 (stereo not drawn) | 150 nM | 890 nM | – | 90 nM | -0.53 |
| Cc1ccc(OP2(=O)NCCCO2)cc1 (stereo not drawn) | 590 nM | 710 nM | – | 870 nM | 0.76 |
| NS(=O)(=O)c1ccc(NP2(=O)NCCCN2)cc1 | 130 nM | 190 nM | – | 110 nM | 1.56 |
| CC1(C)CNP(=O)(Nc2ccccc2)NC1 | 3170 nM | 3110 nM | – | 2040 nM | -0.03 |
| O=P1(N(CCCl)CCCl)NCCCO1 (stereo not drawn) [CYCLOPHOSPHAMIDE ANHYDROUS] | 240 nM | 150 nM | – | 90 nM | – |
| Nc1ccc(S(N)(=O)=O)cc1 [SULFANILAMIDE] | 80 nM | 200 nM | – | 90 nM | – |
